A short description of assay [1]: viability of uninfected HEp-2 cells – cell-based, HTS, cytotoxicity control for RSV inhibitor project, dose response (AID 2410). To be noted: human respiratory syncytial virus. In kind it is functional.
In assay [2] the test system is Vero. Description: mammalian cell viability reduction – secondary assay, cytotoxicity control for West Nile virus antiviral project, dose response (AID 1650). To be noted: Chlorocebus sabaeus. It counts as functional.
Assay [3] deals with Vero. Put plainly: inhibition of WNV-induced cytopathic effect – cell-based, CPE readout (AID 1621). To be noted: Chlorocebus sabaeus. In kind it is functional.
Assay [4] has as its target T1, Microphthalmia-associated transcription factor (Homo sapiens, UniProt O75030).
T1 sequence (O75030 whole entry): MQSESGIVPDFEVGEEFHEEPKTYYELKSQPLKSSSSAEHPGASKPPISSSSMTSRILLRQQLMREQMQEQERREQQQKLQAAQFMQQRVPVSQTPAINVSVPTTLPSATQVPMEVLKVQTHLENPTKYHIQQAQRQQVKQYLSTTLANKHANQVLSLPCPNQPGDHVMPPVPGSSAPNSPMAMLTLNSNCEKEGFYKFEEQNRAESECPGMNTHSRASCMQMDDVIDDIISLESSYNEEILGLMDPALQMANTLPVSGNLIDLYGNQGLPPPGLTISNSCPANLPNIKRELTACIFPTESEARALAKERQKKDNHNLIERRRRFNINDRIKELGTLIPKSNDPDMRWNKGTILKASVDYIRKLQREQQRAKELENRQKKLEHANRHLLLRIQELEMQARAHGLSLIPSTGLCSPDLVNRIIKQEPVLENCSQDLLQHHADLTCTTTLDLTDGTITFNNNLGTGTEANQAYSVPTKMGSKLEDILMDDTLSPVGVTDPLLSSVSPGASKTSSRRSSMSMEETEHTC
Put plainly: reducers of TRPM1 reporter luminescence, concentration series – cell-based, SK-MEL-5, cherry-picked, set 3, MITF inhibitor project, dose response (AID 493073).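 Also: SK-MEL-5 melanoma cells with luciferase driven by the MITF target TRPM1 promoter.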 It counts as functional.

For assay [5], the system named is Vero. Put plainly: cells. To be noted: Chlorocebus sabaeus. It counts as functional, cell-based.
In assay [6] the test system is Vero. Put plainly: cells. It counts as functional. To be noted: Chlorocebus sabaeus.
The target in the next assay is NADPH oxidase 1 (Homo sapiens, UniProt Q9Y5S8). Put plainly: Late-stage luminescence-based cell-based dose response assay to identify inhibitors of NADPH oxidase 1 (NOX1): Purchased analogs 2. It counts as functional.
Assay [7] concerns the target Serine/threonine-protein phosphatase PP1-alpha catalytic subunit (Homo sapiens, UniProt P62136). Description: inhibition of protein phosphatase 1 activity – biochemical, fluorescence, dose response (AID 2394).
The target of assay [8] is Serine/threonine-protein phosphatase (Homo sapiens, UniProt Q9BPW0). Description: inhibition of protein phosphatase 5 activity – biochemical, fluorescence, dose response (AID 2395).
In assay [9] the target is G-protein coupled receptor 35 (Homo sapiens, UniProt Q9HC97). Put plainly: SAR Analysis for the identification of Selective Antagonists of ERK1/2 Activity in GPR35-Overexpressing U2OS Cells. [Related pubchem assays: 2079, 2058 ]. It counts as functional, cell-based.
Assay [10] has as its target Tyrosine-protein phosphatase non-receptor type 12 (Homo sapiens, UniProt Q05209). Description: SAR Selectivity Analysis of small molecule inhibitors of PEST using pCAP in a fluorescence assay. [Related pubchem assays (depositor defined):AID1779, AID1784, AID2135]. It counts as functional.
The target of assay [11] is T2, Tyrosine-protein phosphatase non-receptor type 22 (Homo sapiens, UniProt Q9Y2R2).
T2 sequence (Q9Y2R2 whole entry): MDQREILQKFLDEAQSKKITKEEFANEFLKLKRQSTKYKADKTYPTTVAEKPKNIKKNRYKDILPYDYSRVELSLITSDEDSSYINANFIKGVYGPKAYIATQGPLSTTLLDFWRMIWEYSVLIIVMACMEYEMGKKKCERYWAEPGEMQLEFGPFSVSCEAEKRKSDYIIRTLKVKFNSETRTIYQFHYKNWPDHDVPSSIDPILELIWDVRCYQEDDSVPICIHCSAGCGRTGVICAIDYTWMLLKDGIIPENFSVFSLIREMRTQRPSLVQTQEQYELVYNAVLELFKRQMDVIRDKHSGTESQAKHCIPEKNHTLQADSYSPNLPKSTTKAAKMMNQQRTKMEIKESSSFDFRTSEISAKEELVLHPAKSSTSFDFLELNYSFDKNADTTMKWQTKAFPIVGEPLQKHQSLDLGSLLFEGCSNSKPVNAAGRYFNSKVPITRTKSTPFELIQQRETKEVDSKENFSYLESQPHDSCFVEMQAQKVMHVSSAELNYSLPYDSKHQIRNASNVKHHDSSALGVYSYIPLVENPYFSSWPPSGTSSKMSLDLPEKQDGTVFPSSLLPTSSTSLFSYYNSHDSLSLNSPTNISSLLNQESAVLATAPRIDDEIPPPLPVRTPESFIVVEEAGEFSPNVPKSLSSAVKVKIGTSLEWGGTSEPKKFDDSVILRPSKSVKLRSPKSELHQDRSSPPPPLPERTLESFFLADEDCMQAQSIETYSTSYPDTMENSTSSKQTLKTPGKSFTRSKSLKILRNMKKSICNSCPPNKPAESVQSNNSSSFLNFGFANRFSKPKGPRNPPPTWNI
Description: SAR LYP1 Fluorescent Assay using OMFP substrate for In Vitro dose response studies - Set 3. [Related pubchem assays (depositor defined):AID1779, AID1784, AID2140, AID2686]. In kind it is functional.

Assay [12] addresses T3, Tyrosine-protein phosphatase non-receptor type 7 (Homo sapiens, UniProt P35236).
T3 sequence (P35236 whole entry): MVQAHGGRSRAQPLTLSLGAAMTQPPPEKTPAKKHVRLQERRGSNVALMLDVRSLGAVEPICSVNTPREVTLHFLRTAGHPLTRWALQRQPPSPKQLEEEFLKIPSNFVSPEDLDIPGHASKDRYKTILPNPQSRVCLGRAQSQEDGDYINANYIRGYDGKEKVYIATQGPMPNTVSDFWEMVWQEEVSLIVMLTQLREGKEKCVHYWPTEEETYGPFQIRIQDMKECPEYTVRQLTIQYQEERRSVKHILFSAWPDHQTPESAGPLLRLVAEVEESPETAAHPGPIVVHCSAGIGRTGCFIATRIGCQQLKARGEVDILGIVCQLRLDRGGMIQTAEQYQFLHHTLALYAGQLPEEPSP
Put plainly: inhibition of hematopoietic tyrosine phosphatase HePTP – biochemical, set 2, SAR follow-up (AID 449736). In kind it is functional.

Assay [13] has as its target T2, Tyrosine-protein phosphatase non-receptor type 22. Put plainly: inhibition of lymphoid tyrosine phosphatase LYP – biochemical, pCAP fluorogenic substrate, fluorescence, set 3, SAR follow-up (AID 449727). It counts as functional.
The target of assay [14] is G-protein coupled receptor 55 (Homo sapiens, UniProt Q9Y2T6). Put plainly: blockers of GPR55 signalling, imaged – imaging, image-based, counter-screen for GPR35 antagonist project, SAR follow-up (AID 2397). In kind it is functional.
The target of a further assay is Ephrin type-A receptor 4 (Mus musculus, UniProt Q03137). Put plainly: EphA4 ligand-binding antagonists – biochemical, colorimetric, mouse EphA4, primary screen (AID 689). It counts as functional.
Assay [15] is described as follows: Luminescent dose response cell-based high throughput screening assay for inhibitors of the Janus kinase 2 mutant JAK2V617F. [Related pubchem assays: 1446 (Primary screen.), 1521 (Confirmation assay.), 1486 (Counter screen.)]. In kind it is functional.
Assay [16] is described as follows: NIH-3T3 fibroblast cytotoxicity, dose response, cytotoxicity control, cell-based, fluorescence, Alamar Blue, secondary assay (AID 2327).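 Also: NIH-3T3 mouse fibroblasts cultured with fluconazole at 8 µg/mL.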 In kind it is functional.
Assay [17] can be described thus: fluconazole-exposed Candida albicans growth modulators – fluorescence, retest, confirmation (AID 2467). It counts as functional, cell-based.
The nature of assay [18]: THP-1 cell cytotoxicity, dose response, cytotoxicity control for non-replicating M. tuberculosis project (AID 489025). In kind it is functional.
The nature of assay [19]: HepG2 cell cytotoxicity, dose response, cytotoxicity control for non-replicating M. tuberculosis project (AID 489018). In kind it is functional. To be noted: Mycobacterium tuberculosis.
Assay [20] can be described thus: Vero E6 cell cytotoxicity, dose response, cytotoxicity control for non-replicating M. tuberculosis project, secondary assay (AID 492998). In kind it is functional, VeroE6. To be noted: Vero C1008.
The next assay can be described thus: cells. In kind it is functional.
Assay [21] addresses Heat shock protein HSP 90-alpha (Homo sapiens, UniProt P07900). It counts as functional, organism-based.
The next assay concerns INS1. Put plainly: INS-1E survival protection against cytokine death – cell-based, luminescence, retest, dose response (AID 449756).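 Also: cell death triggered by IL-1 beta plus TNF-alpha plus IFN-gamma mixture; protective hits raise ATP signal compared with cytokine alone wells.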 To be noted: Rattus norvegicus. In kind it is functional.

From ChEMBL document CHEMBL1201862, “PubChem BioAssay data set” (2004) come the findings set out here.

The source made the active and inactive calls.

Tyrosine-protein phosphatase non-receptor type 12, sequence (Q05209 whole entry): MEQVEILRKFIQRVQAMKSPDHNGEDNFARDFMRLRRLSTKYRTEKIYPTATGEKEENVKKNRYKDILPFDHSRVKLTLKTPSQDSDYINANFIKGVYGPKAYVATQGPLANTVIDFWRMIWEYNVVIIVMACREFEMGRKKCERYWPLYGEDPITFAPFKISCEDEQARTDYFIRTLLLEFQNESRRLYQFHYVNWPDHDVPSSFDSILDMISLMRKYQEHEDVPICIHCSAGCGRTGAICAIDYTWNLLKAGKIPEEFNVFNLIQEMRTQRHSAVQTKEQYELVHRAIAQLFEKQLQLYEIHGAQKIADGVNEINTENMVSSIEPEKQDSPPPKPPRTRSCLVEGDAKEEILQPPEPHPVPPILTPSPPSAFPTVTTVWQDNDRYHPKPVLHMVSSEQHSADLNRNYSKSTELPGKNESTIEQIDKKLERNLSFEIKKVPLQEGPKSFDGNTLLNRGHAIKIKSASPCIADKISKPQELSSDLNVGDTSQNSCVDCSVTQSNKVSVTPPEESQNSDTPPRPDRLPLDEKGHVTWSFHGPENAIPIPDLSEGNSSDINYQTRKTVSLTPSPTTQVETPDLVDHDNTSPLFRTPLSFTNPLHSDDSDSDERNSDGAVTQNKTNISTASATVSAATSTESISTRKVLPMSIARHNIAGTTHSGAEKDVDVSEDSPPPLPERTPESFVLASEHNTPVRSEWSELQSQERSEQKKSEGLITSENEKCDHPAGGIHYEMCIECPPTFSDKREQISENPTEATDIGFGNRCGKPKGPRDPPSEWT
G-protein coupled receptor 55, sequence (Q9Y2T6 whole entry): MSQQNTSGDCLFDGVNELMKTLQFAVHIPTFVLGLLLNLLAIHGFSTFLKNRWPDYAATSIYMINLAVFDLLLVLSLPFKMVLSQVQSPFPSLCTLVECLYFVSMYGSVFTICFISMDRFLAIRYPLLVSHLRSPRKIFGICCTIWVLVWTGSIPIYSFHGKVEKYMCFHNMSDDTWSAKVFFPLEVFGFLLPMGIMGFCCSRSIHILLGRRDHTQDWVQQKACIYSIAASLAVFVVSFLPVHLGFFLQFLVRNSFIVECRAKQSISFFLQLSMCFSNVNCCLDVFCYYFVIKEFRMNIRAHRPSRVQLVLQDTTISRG
Serine/threonine-protein phosphatase, sequence (Q9BPW0 whole entry): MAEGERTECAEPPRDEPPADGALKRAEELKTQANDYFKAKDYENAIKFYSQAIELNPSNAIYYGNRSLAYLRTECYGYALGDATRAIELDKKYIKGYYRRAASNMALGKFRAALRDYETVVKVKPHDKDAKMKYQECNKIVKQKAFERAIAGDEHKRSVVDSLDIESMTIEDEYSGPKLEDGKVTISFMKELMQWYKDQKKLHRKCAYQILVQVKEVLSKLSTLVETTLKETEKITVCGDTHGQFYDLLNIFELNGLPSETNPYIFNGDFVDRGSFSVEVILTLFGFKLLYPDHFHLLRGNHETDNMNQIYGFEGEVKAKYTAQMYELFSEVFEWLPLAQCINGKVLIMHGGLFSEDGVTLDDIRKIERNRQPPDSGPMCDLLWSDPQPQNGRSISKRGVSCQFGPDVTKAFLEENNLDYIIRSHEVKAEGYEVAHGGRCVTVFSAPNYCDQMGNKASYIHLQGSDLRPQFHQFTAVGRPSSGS
Serine/threonine-protein phosphatase PP1-alpha catalytic subunit, sequence (P62136 whole entry): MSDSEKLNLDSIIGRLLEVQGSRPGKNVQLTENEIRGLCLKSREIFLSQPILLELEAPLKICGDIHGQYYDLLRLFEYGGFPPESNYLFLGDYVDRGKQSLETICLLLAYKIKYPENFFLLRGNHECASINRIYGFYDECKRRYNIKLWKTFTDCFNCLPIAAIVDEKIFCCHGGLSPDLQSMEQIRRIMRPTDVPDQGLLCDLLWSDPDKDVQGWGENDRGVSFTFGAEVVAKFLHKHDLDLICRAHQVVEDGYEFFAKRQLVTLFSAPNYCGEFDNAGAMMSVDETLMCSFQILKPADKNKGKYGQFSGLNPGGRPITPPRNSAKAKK
G-protein coupled receptor 35, sequence (Q9HC97 whole entry): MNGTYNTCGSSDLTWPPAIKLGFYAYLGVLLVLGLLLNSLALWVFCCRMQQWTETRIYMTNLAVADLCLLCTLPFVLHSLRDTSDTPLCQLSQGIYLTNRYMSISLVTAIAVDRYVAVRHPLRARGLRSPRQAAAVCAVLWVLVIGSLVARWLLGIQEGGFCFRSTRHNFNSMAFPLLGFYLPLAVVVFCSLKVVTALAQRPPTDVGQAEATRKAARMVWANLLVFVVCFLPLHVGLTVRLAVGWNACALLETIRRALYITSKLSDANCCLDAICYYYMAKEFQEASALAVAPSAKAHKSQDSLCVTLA
NADPH oxidase 1, sequence (Q9Y5S8 whole entry): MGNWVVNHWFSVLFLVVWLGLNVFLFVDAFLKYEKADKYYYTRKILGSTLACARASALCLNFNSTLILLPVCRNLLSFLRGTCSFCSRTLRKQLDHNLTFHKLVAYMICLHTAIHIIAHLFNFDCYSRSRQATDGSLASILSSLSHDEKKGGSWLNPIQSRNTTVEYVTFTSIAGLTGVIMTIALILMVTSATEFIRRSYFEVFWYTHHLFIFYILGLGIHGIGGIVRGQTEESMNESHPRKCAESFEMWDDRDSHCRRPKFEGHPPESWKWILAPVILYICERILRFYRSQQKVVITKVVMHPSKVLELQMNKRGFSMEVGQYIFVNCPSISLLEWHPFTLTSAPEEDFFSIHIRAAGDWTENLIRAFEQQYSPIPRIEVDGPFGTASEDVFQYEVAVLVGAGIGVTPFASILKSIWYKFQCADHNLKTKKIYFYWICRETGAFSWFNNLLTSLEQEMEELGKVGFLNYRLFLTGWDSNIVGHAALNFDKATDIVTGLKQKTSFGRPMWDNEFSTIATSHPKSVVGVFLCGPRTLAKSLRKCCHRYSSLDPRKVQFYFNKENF
Ephrin type-A receptor 4, sequence (Q03137 whole entry): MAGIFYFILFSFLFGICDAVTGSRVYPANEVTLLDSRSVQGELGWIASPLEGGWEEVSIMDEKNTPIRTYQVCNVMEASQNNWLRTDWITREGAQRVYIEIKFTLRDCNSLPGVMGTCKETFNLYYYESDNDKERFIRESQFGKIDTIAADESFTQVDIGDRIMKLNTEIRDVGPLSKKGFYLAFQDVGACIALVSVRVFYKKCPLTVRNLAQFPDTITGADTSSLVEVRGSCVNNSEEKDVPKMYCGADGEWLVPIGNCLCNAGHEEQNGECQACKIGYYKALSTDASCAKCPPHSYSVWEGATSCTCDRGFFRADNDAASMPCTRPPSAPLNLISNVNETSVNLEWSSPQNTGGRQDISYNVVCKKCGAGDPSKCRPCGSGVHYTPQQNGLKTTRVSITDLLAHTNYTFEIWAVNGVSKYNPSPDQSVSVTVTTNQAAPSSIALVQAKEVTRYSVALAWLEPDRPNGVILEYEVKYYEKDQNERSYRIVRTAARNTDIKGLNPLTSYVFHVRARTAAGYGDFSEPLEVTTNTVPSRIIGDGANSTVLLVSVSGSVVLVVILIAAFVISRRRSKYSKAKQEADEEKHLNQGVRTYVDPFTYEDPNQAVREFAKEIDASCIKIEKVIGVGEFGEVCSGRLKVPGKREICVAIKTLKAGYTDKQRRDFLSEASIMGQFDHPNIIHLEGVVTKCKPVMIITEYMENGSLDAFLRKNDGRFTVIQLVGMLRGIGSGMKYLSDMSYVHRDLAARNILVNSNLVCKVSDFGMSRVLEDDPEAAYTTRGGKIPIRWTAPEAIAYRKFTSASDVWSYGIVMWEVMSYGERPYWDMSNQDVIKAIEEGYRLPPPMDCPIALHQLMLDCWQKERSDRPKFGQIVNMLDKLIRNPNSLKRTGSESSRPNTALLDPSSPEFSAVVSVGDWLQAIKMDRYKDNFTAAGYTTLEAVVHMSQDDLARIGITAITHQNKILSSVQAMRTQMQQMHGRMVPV

Turning to `NCCCNc1nc(N)c([N+](=O)[O-])c(NC2CCCCC2)n1`, the CC50 in assay [1] is 18.2 µM (active); in the assay with Vero [2], 13.4 µM (active); with Vero [6], 11.6 µM (active). For the same compound, the IC50 is 8.89 µM (active) in the assay on Vero [3] and 6 µM (active) with Vero [5]. Moreover, in assay [4], the AC50 was 6.36 µM (active).

Turning to `Fc1nc(F)c(F)c(N/N=C/c2ccc(Br)cc2)c1F`, at NADPH oxidase 1, the IC50 was > 17 µM (not active).

Regarding `COc1ccc(Cn2c(N)c(C(=O)NCc3ccco3)c3nc4ccccc4nc32)cc1OC`, the IC50 is listed as > 67 µM (not active) in assay [7] and 46.5 µM (not active) in [8].

Take `CCOC(=O)c1ccc(NC(=O)CCCN2C(=O)/C(=C/c3ccc(C)cc3)SC2=S)cc1`: the IC50 in assay [9] was 21.4 µM (not active); in assay [10], 96.4 µM (active); in [11], > 100 µM (inactive); in assay [12] it was > 100 µM (inactive); in assay [13], > 100 µM (inactive); in [14] it was > 32 µM (inactive).

Turning to `Cc1cc(C=C2C(=O)N(C)C(=S)N(C)C2=O)c(C)n1C1CCCCC1`, the IC50 at Ephrin type-A receptor 4 is 5.14 µM (active).

On to `COc1cccc(F)c1C(C[N+](=O)[O-])c1c(N)n(C)c(=O)n(C)c1=O` (stereo unspecified), for which the IC50 in assay [15] is 1.06 µM (active); in the assay “cells” it was 5.94 µM (active). For the same compound, the EC50 in [16] is 5.27 µM (active); in assay [17] it was 0.779 µM (active). The CC50 in assay [18] is 7.28 µM (active); in assay [19] it was 16.2 µM (active); in assay [20], 4.73 µM (active); in the assay with Vero [6], 8.24 µM (active). For the same compound, the AC50 in assay [21] was 3.91 µM (active); with INS1, 7.85 µM (active).
